Reference: US4663327A, “1-heteroaryl-4-aryl-pyrazolin-5-ones” (priority 1984, dated 1987)
Values after ≈ are worked out from the molar mass of the structure shown.

Columns and labels:
Pyricularia oryzae = type: in vivo; conditions: rice, sprayed, disease infestation 4 days after inoculation
Botrytis cinerea = experiment: Botrytis test (BEAN)/protective; type: in vivo; conditions: sprayed, infected spots on leaves evaluated 3 days after inoculation
Protocol: Botrytis test (BEAN)/protective Solvent: 4.7 parts by weight of acetone Emulsifier: 0.3 parts by weight alkyl aryl polyglycol ether To produce a suitable preparation of active compound, 1 pat by weight of active compound is mixed with the stated amounts of solvent and emulsifier, and the concentrate is diluted with water to the desired concentration. To test for protective activity, young plants are sprayed with the preparation of active compound until dripping wet. After the spray coating has dried on, 2 small pieces of agar covered with Botrytis cinerea are placed on each leaf. The inoculated plants are placed in a darkened humidity chamber at 20° C. 3 days after the inoculation, the size of the infected spots on the leaves is evaluated.

Alternaria tenuis = experiment: MIC on fungi in agar; conditions: Alternaria alternata, 336 h
Protocol: (§1) After storage for 2 weeks at 28° C. and 60 to 70% relative atmospheric humidity, the MIC is determined.

Aspergillus niger = experiment: MIC on fungi in agar; conditions: 336 h
Protocol: as §1

Aureobasidium pullulans = experiment: MIC on fungi in agar; conditions: 336 h
Protocol: as §1

Chaetomium globosum = experiment: MIC on fungi in agar; conditions: 336 h
Protocol: as §1

Coniophora puteana = experiment: MIC on fungi in agar; conditions: 336 h
Protocol: as §1

Lentinus tigrinus = experiment: MIC on fungi in agar; conditions: 336 h
Protocol: as §1

Penicillium glaucum = experiment: MIC on fungi in agar; conditions: 336 h
Protocol: as §1

Polyporus versicolor = experiment: MIC on fungi in agar; conditions: Trametes versicolor, 336 h
Protocol: as §1

Sclerophoma pityophila = experiment: MIC on fungi in agar; conditions: Sydowia polyspora, 336 h
Protocol: as §1

Trichoderma viride = experiment: MIC on fungi in agar; conditions: 336 h
Protocol: as §1

O=c1c(-c2ccccc2Cl)c[nH]n1-c1ccccn1 [Example 7]
protective activity (Pyricularia oryzae): clearly superior activity compared with the prior art

O=c1c(-c2c(F)cccc2Cl)c[nH]n1-c1ccccn1 [Example 11]
protective activity (Botrytis cinerea): clearly superior activity compared with the prior art
protective activity (Pyricularia oryzae): clearly superior activity compared with the prior art

O=c1c(-c2ccc(C(F)(F)F)cc2)c[nH]n1-c1ccccn1 [Example 25]
protective activity (Pyricularia oryzae): clearly superior activity compared with the prior art

Cc1ccc(-c2c[nH]n(-c3cc(C)c4ccccc4n3)c2=O)cc1 [Example 68]
protective activity (Pyricularia oryzae): clearly superior activity compared with the prior art

Cc1cc(-n2[nH]cc(-c3ccc(C(F)(F)F)cc3)c2=O)cc(C)n1 [Example 80]
protective activity (Pyricularia oryzae): clearly superior activity compared with the prior art

O=c1c(-c2ccccc2)c[nH]n1-c1ncccn1 [Example 81, 1-pyrimid-2-yl-4-phenyl-pyrazolin-5-one]
MIC (Alternaria tenuis): 75 µg/mL (≈ 315 µM)
MIC (Aspergillus niger): 10 µg/mL (≈ 42 µM)
MIC (Aureobasidium pullulans): 50 µg/mL (≈ 210 µM)
MIC (Chaetomium globosum): 3.5 µg/mL (≈ 14.7 µM)
MIC (Coniophora puteana): 0.5 µg/mL (≈ 2.1 µM)
MIC (Lentinus tigrinus): 5 µg/mL (≈ 21 µM)
MIC (Penicillium glaucum): 50 µg/mL (≈ 210 µM)
MIC (Polyporus versicolor): 2 µg/mL (≈ 8.39 µM)
MIC (Sclerophoma pityophila): 7.5 µg/mL (≈ 31.5 µM)
MIC (Trichoderma viride): 75 µg/mL (≈ 315 µM)

O=c1c(-c2ccccc2Cl)c[nH]n1-c1ncccn1 [Example 84]
protective activity (Botrytis cinerea): clearly superior activity compared with the prior art
protective activity (Pyricularia oryzae): clearly superior activity compared with the prior art
MIC (Alternaria tenuis): 50 µg/mL (≈ 183 µM)
MIC (Aspergillus niger): 10 µg/mL (≈ 36.7 µM)
MIC (Aureobasidium pullulans): 20 µg/mL (≈ 73.3 µM)
MIC (Chaetomium globosum): 1.5 µg/mL (≈ 5.5 µM)
MIC (Coniophora puteana): 2 µg/mL (≈ 7.33 µM)
MIC (Lentinus tigrinus): 50 µg/mL (≈ 183 µM)
MIC (Penicillium glaucum): 20 µg/mL (≈ 73.3 µM)
MIC (Polyporus versicolor): 35 µg/mL (≈ 128 µM)
MIC (Sclerophoma pityophila): 10 µg/mL (≈ 36.7 µM)
MIC (Trichoderma viride): 35 µg/mL (≈ 128 µM)

O=c1c(-c2ccc(Cl)cc2)c[nH]n1-c1ncccn1 [Example 85, 1-pyrimid-2-yl-4-(4-chlorophenyl)-pyrazolin-5-one]
MIC (Alternaria tenuis): 50 µg/mL (≈ 183 µM)
MIC (Aspergillus niger): 5 µg/mL (≈ 18.3 µM)
MIC (Aureobasidium pullulans): 50 µg/mL (≈ 183 µM)
MIC (Chaetomium globosum): 1 µg/mL (≈ 3.67 µM)
MIC (Coniophora puteana): 3.5 µg/mL (≈ 12.8 µM)
MIC (Lentinus tigrinus): 7.5 µg/mL (≈ 27.5 µM)
MIC (Penicillium glaucum): 10 µg/mL (≈ 36.7 µM)
MIC (Polyporus versicolor): 5 µg/mL (≈ 18.3 µM)
MIC (Sclerophoma pityophila): 20 µg/mL (≈ 73.3 µM)
MIC (Trichoderma viride): 100 µg/mL (≈ 367 µM)

O=c1c(-c2ccccc2Br)c[nH]n1-c1ncccn1 [Example 86]
MIC (Alternaria tenuis): 20 µg/mL (≈ 63.1 µM)
MIC (Aspergillus niger): 10 µg/mL (≈ 31.5 µM)
MIC (Aureobasidium pullulans): 20 µg/mL (≈ 63.1 µM)
MIC (Chaetomium globosum): 1 µg/mL (≈ 3.15 µM)
MIC (Coniophora puteana): 5 µg/mL (≈ 15.8 µM)
MIC (Lentinus tigrinus): 2 µg/mL (≈ 6.31 µM)
MIC (Penicillium glaucum): 50 µg/mL (≈ 158 µM)
MIC (Polyporus versicolor): 2 µg/mL (≈ 6.31 µM)
MIC (Sclerophoma pityophila): 10 µg/mL (≈ 31.5 µM)
MIC (Trichoderma viride): 35 µg/mL (≈ 110 µM)

O=c1c(-c2c(F)cccc2Cl)c[nH]n1-c1ncccn1 [Example 87]
protective activity (Botrytis cinerea): clearly superior activity compared with the prior art

O=c1c(-c2ccc(Cl)cc2Cl)c[nH]n1-c1ncccn1 [Example 88]
protective activity (Botrytis cinerea): clearly superior activity compared with the prior art

O=c1c(-c2ccc(Cl)c(Cl)c2)c[nH]n1-c1ncccn1 [Example 89]
protective activity (Botrytis cinerea): clearly superior activity compared with the prior art

COc1ccccc1-c1c[nH]n(-c2ncccn2)c1=O [Example 90]
MIC (Alternaria tenuis): 75 µg/mL (≈ 280 µM)
MIC (Aspergillus niger): 35 µg/mL (≈ 130 µM)
MIC (Aureobasidium pullulans): 75 µg/mL (≈ 280 µM)
MIC (Chaetomium globosum): 15 µg/mL (≈ 55.9 µM)
MIC (Coniophora puteana): 5 µg/mL (≈ 18.6 µM)
MIC (Lentinus tigrinus): 100 µg/mL (≈ 373 µM)
MIC (Penicillium glaucum): 35 µg/mL (≈ 130 µM)
MIC (Polyporus versicolor): 10 µg/mL (≈ 37.3 µM)
MIC (Sclerophoma pityophila): 15 µg/mL (≈ 55.9 µM)
MIC (Trichoderma viride): 150 µg/mL (≈ 559 µM)

COc1ccc(-c2c[nH]n(-c3ncccn3)c2=O)cc1 [Example 91]
MIC (Alternaria tenuis): 100 µg/mL (≈ 373 µM)
MIC (Aspergillus niger): 50 µg/mL (≈ 186 µM)
MIC (Aureobasidium pullulans): 150 µg/mL (≈ 559 µM)
MIC (Chaetomium globosum): 20 µg/mL (≈ 74.6 µM)
MIC (Coniophora puteana): 5 µg/mL (≈ 18.6 µM)
MIC (Lentinus tigrinus): 100 µg/mL (≈ 373 µM)
MIC (Penicillium glaucum): 10 µg/mL (≈ 37.3 µM)
MIC (Polyporus versicolor): 20 µg/mL (≈ 74.6 µM)
MIC (Sclerophoma pityophila): 15 µg/mL (≈ 55.9 µM)
MIC (Trichoderma viride): 200 µg/mL (≈ 746 µM)

Cc1ccccc1-c1c[nH]n(-c2ncccn2)c1=O [Example 96]
protective activity (Botrytis cinerea): clearly superior activity compared with the prior art

O=c1c(-c2cc(C(F)(F)F)cc(C(F)(F)F)c2)c[nH]n1-c1ncccn1 [Example 104]
protective activity (Pyricularia oryzae): clearly superior activity compared with the prior art

Cc1ccccc1-c1c[nH]n(-c2ncc(Cl)cn2)c1=O [Example 111]
protective activity (Botrytis cinerea): clearly superior activity compared with the prior art

Cc1cc(-n2[nH]cc(-c3ccc(C(F)(F)F)cc3)c2=O)nc(C)n1 [Example 122]
protective activity (Pyricularia oryzae): clearly superior activity compared with the prior art
